Consider 1 compound from US6262095A, “Use of tricyclic derivatives of 1,4-dihydro-1,4-dioxo-1H-naphthalene, novel compounds obtained and their application in theraphy” (Laboratoire Innothera, priority 1995, dated 2001).

The test system of test [1] is basilar artery of rabbits. In words: Contraction of rabbit basilar artery under depolarizing hyperpotassic conditions. In kind it is cell-based. The procedure: (§1) The contractile effects are measured in vitro under static conditions on vascular capacitance or resistance rings of saphenous, femoral, jugular, mesenteric, and caval veins . . . and on femoral, carotid, basilar, or mesenteric arteries, as well as the thoracic or abdominal aorta . . . in rats (Wistar, 200-250 g), rabbits (New Zealand, 2-2.5 kg), guinea pigs (Dunkin Hartley 250-300 g).
(§2) The rings are placed in a chamber for isolated organs (25 mL for capacitance vessels and 2.5 mL for resistance vessels according to Mulvany), and maintained under isometric conditions using two rigid threads inserted inside the vessel, avoiding causing damage to the endothelium. The vessels are bathed in a modified Krebs solution (in mM: NaCl=118; KCl=4.6; CaCl2 =2.5; MgSO4 =1.2; KH2 PO4 =1.17; NaHCO3 =25; glucose=11), continuously aerated using a gaseous mixture of 95% O2 and 5% Co2, at a pH=7.4, and regulated by thermostat at 37° C. The rings are adjusted to their optimal point as far as the tension-length relationship is concerned. […] The pharmacological studies are carried out after a few standardized preliminary contractile stimulations using a depolarizing solution (hyperpotassic type obtained by replacing NaCl with KCl in equimolar quantities), along with rinsings and periods of equilibration in a pure physiological solution. […]

For test [2], the system named is septic shock in rats. The test can be described thus: Septic shock induced by LPS in rats. The note with it: rat, 28 mg/kg i.v. bolus 5 min before induction of septic shock, compared to control group. The format is in vivo. How it is done: The activity in septic shock is studied in rats after the induction of the shock by an intravenous injection in the bolus of a lipopolysaccharide endotoxin (LPS: 15 mg/kg) of E. col, in a method similar to that described by Terashita et al., Eur. J. Pharmacol., 1985, Vol. 109: pp. 257-261. The arterial pressures are measured as a function of time and comparatively between treated groups and control groups (excipient alone). The compounds are administered intravenously or orally, 5 min or 2 h, respectively, before the injection of LPS.

The subject of test [3] is carotid arteries of rabbits. The test can be described thus: Contraction of rabbit carotid arteries under depolarizing hyperpotassic conditions. In kind it is cell-based. The note with it: Oryctolagus cuniculus, pH 7.4, read-out: ED50 (contraction). The procedure: as §1, §2
Test [4] relates to hyperpermeability induced by histamine in rats. The test can be described thus: Hyperpermeability induced by histamine in rats. The note with it: rat, oral 0.1 mg/kg, after 2 h, compared to the control group. The format is in vivo, rat (Wistar). How it is done: The vascular permeability is studied in vivo by measuring the extravasation of albumin, the quantity of which is determined using an albumin-binding dye (Evans blue).
The hyperpermeability is induced by the intradermal injection of a solution of histamine, bradykinin, or zymosan.
The technique is derived from that described by Beach & Steinetz, J. Pharmacol. Exp. Therap., 1961, Vol. 131: pp. 400-406.
The abdominal walls of the rats (Wistar, 200-230 g) are shorn 1 h before the start of the experiment. The product to be tested is injected by the intraperitoneal route or orally 1-4 h before the sacrifice. The rats are anesthetized with a halothane mixture. […]
At the site of the injection of the inflammatory agent, the skin is cut and placed into glass tubes with a ground[-glass] neck containing 3 mL of fuming hydrochloric acid. […] The optical densities are quantified by absorption spectrophotometry at a wavelength of 620 nm, against a blank [control] containing only dichloromethane. The averages of the optical densities of the different lots of treated or control animals are calculated, then a percentage of variation of the values corresponding to the treated [experimental] animals compared to those of the control animals is calculated.

Test [5] concerns jugular vein of the rat. The test can be described thus: Contraction of rat jugular vein under depolarizing hyperpotassic conditions. The format is cell-based. The note with it: pH 7.4, read-out: ED50 (contraction). How it is done:
as §1, §2

Test [6] deals with saphenous vein in rabbits. The test can be described thus: Contractile effect on the rabbit saphenous vein precontracted by a depolarizing physiological solution (K+ 40 mM). The note with it: Oryctolagus cuniculus, precontracted with 40 mM potassium. The format is cell-based. How it is done:
as §1
The rings are placed in a chamber for isolated organs (25 mL for capacitance vessels and 2.5 mL for resistance vessels according to Mulvany), and maintained under isometric conditions using two rigid threads inserted inside the vessel, avoiding causing damage to the endothelium. The vessels are bathed in a modified Krebs solution (in mM: NaCl=118; KCl=4.6; CaCl2 =2.5; MgSO4 =1.2; KH2 PO4 =1.17; NaHCO3 =25; glucose=11), continuously aerated using a gaseous mixture of 95% O2 and 5% Co2, at a pH=7.4, and regulated by thermostat at 37° C. The rings are adjusted to their optimal point as far as the tension-length relationship is concerned. The tensions developed generate an electrical signal through the intermediary of a force sensor (Wheatstone bridge). […] The pharmacological studies are carried out after a few standardized preliminary contractile stimulations using a depolarizing solution (hyperpotassic type obtained by replacing NaCl with KCl in equimolar quantities), along with rinsings and periods of equilibration in a pure physiological solution. The presence of endothelium is verified by the relaxation induced by increasing the concentration of acetylcholine after the stabilization of a vascular precontraction.
The forces of contraction developed by the vascular rings in response to the different compounds are studied on quiescent or electrically stimulated vessels (5-8 Hz), by a "physiological" depolarizing hyperpotassic solution (KCl: 20, 40 mM), by noradrenaline (increasing concentrations), [and by] serotonin (increasing concentrations).
The contractions are expressed in mg force or as a percentage of the maximum contraction at the time of the depolarization with a "physiological" hyperpotassic solution.
The contractile effect of different compounds on the saphenous vein in rabbits, precontracted by a depolarizing "physiological" solution with a potassium concentration of 40 mM, is given as an illustration; the maximum effect produced by each compound is expressed as a percentage of the maximum contraction induced by depolarizing hyperpotassic solutions and as value of ED50): […]

Test [7] relates to carotid arteries of rats. The test can be described thus: Contraction of rat carotid arteries under depolarizing hyperpotassic conditions. In kind it is cell-based. The note with it: pH 7.4, read-out: ED50 (contraction). How it is done:
as §1, §2

As to `O=C1c2ccccc2C(=O)c2sc(-c3ccco3)nc21` [Example n, 4,9-Dihydro-4,9-dioxo-2-(2-furyl)-naphtho[2,3-d]thiazole], in test [1], the “contraction of basilar artery” value is “contracts”. For the same compound, in test [2], the “increase of average arterial pressure” value is 20 mm of mercury. Besides, the EC50 is 120 nM in test [3], 50 nM in test [5], 110 nM in test [6] (read-out: ED50 (the source's name)) and 300 nM in test [7]. Besides, in test [4], the “decrease of hyperpermeability induced by histamine” value came out at 26%. Also, the maximal effect (Emax) (usually the maximal effect, on the per cent scale that the assay sets) in test [6] (% of maximum contraction induced by hyperpotassic solutions) stood at 24 ± 3%.
